Tests used:
[1] = system: human Fibroblast Growth Factor 19 (hFGF19); assay: Differential expression of FGF19 in human hepatocytes treated with FXR agonists (transcript profiling); type: cell-based; settings: vs DMSO control
Method: The present study utilized differential gene expression analysis as performed by CuraGen Corporation (New Haven, Conn.) using transcript profiling technology. […] In brief, RNA is extracted from samples and cDNA synthesis is carried out. The cDNAs are then digested with multiple pairs of different restriction enzymes (standard set of 96 different pairs of restriction enzymes with 6 base-pair recognition sites (subsequence pairs)), and the digested products are ligated to complementary adapters containing standardized PCR priming sequences. Multiple PCR cycles are carried out using one biotinylated adapter-specific primer and one fluorescently labeled adapter-specific primer. Following PCR amplification, the biotin-labeled DNA is purified on immobilized streptavidin. Denatured single stranded cDNA fragments are then sized using capillary electrophoresis, and the fluorescently labeled fragments are detected by laser excitation. Since the biotin label is needed for purification and the fluorescent label is needed for detection, all analyzed fragments result from restriction digestion with both enzymes.
Differentially expressed peaks are identified by comparing the composite traces of the experimental samples vs. the control samples using bioinformatics algorithms. […]

primary rat adipocytes [2] = settings: added to cultures of primary rat adipocytes; cited from earlier work
FvB mice = settings: 1 mg/kg/day, intravenously by osmotically driven implanted pump, vs carrier alone; cited from earlier work
primary rat adipocytes [3] = settings: added to cultures of primary rat adipocytes; cited from earlier work; remark: listed apart in the source

Compound | Increase in expression of hFGF19 compared to control cells [1] | uptake of glucose (primary rat adipocytes [2]) | food intake (FvB mice) | oxygen consumption (FvB mice) | release of leptin from the cells (primary rat adipocytes [3])
CC(C)c1onc(-c2c(Cl)cccc2Cl)c1COc1ccc(/C=C/c2cccc(C(=O)O)c2)c(Cl)c1 [GW4064X] | 36.4 fold | – | – | – | –
recombinant human FGF-19: recombinant human fibroblast growth factor 19 protein | – | decrease the uptake of glucose | increased food intake | increased oxygen consumption | increase the release of leptin

Reference: patent US20050107475A1, “Methods of using farnesoid x receptor (frx) agonists” (priority 2002, published 2005)
